Assay results as given in publication PMC3849035 (MedChemComm, 2011).

Tests used:
[1] = test system: VZV (OKA & 07/1); experiment: VZV plaque formation assay in HEL cells; type: cell-based, varicella-zoster virus; settings: Human alphaherpesvirus 3, HEL, 120 h
[2] = test system: Parainfluenza-3 virus; experiment: Inhibition of virus-induced cytopathicity, parainfluenza-3 virus in Vero cells; type: cell-based
[3] = test system: Reovirus-1; experiment: Inhibition of virus-induced cytopathicity, Reovirus-1 in Vero cells; type: cell-based
[4] = test system: HCMV and VZV; experiment: organism not typed; type: cell-based; settings: read-out: EC50's against HCMV and VZV
[5] = test system: several tumor cell lines; experiment: Cytotoxic activity against tumor cell lines; type: cell-based
[6] = test system: HEL cells; settings: microscopically visible alteration of cell morphology
[7] = test system: HeLa cells; settings: microscopically visible alteration of cell morphology
[8] = test system: Vero cells; settings: microscopically visible alteration of cell morphology
[9] = test system: MDCK cells; settings: microscopically visible alteration of cell morphology
[10] = test system: HEL, HeLa, Vero, MDCK; settings: four different cell lines (HEL, HeLa, Vero, MDCK)
[11] = test system: VSV; experiment: microbe, parasite or virus in culture; type: cell-based; settings: Vesicular stomatitis virus, HeLa
[12] = test system: RSV; experiment: Inhibition of virus-induced cytopathicity, RSV in HeLa cells; type: cell-based; settings: human respiratory syncytial virus

Question: `O=c1[nH]c(=O)n(C2C=CC(O)C2)cc1-c1cccs1` (stereo not shown) [1a, 1-[4′-Hydroxy-2′-cyclopenten-1′-yl]-5-(thiophene-2-yl)-uracil] was tested. Which EC50 [1] did it give?
Answer: 1.6 to 1.7 µM

Question: And the EC50 [2]?
Answer: > 4 µM

Question: What about the EC50 [3] of the same compound?
Answer: > 4 µM

Question: And the EC50 [4]?
Answer: 1.6 to 2 µM

Question: What about the “cytotoxic activity against several tumor cell lines” value [5] of the same compound?
Answer: significant cytotoxic activity

Question: What about the “MCC (minimal cytotoxic concentration)” value [6] of the same compound?
Answer: ≥4 µM

Question: And the “MCC (minimal cytotoxic concentration)” value [7]?
Answer: 20 µM

Question: What about the “MCC (minimal cytotoxic concentration)” value [8] of the same compound?
Answer: 20 µM

Question: What about the “MCC (minimal cytotoxic concentration)” value [9] of the same compound?
Answer: 4 µM

Question: What about the global cytotoxicity [10] of the same compound?
Answer: 4 to 20 µM

Question: What does the source list for `O=c1[nH]c(=O)n(C2C=CC(O)C2)cc1-c1ccco1` (stereo not shown) [1b, 1-[4′-Hydroxy-2′-cyclopenten-1′-yl]-5-(furan-2-yl)-uracil]?
Answer: EC50 [2]: > 100 µM; MCC (minimal cytotoxic concentration) [6]: >100 µM; MCC (minimal cytotoxic concentration) [7]: >100 µM; MCC (minimal cytotoxic concentration) [8]: >100 µM

Question: How did the EC50 [1] turn out when `O=c1[nH]c(=O)n(C2C=CC(O)C2)cc1-c1cncs1` (stereo not shown) [1c, 1-[4′-Hydroxy-2′-cyclopenten-1′-yl]-5-(thiazol-5-yl)-uracil] was run?
Answer: 47 to 56 µM

Question: And the EC50 [2]?
Answer: > 100 µM

Question: What about the EC50 [3] of the same compound?
Answer: > 100 µM

Question: What about the “MCC (minimal cytotoxic concentration)” value [6] of the same compound?
Answer: ≥100 µM

Question: What about the “MCC (minimal cytotoxic concentration)” value [7] of the same compound?
Answer: >100 µM

Question: And the “MCC (minimal cytotoxic concentration)” value [8]?
Answer: >100 µM

Question: And the “MCC (minimal cytotoxic concentration)” value [9]?
Answer: 100 µM

Question: Which results are given for `NC(=O)c1ncn([C@@H]2O[C@H](CO)[C@@H](O)[C@H]2O)n1` [Ribavirin, reference compound]?
Answer: EC50 [11]: 29 µM; EC50 [12]: 10 µM; EC50 [2]: 85 µM; EC50 [3]: > 250 µM
